Measured values: ChEMBL document CHEMBL6120971 (J Med Chem, 2024)
Values belong to the molecule of their own block, whether it stands above or below them. Active and inactive are the calls of the source. No cut-off for these calls is given here.

Legend:
MKN-45 [1] = assay: Antiproliferative activity against human MKN-45 cells incubated for 72 hrs by CCK8 assay; format: functional, cell-based; conditions: MKN-45, 72 h
[2] = biological target: Protein cereblon/Hepatocyte growth factor receptor (Homo sapiens, UniProt P08581+Q96SW2); assay: PROTAC activity at CRBN/c-MET in human MKN-45 cells assessed as induction of c-MET degradation incubated for 72 hrs by Western blot analysis; format: cell-based
Sequence of Protein cereblon/Hepatocyte growth factor receptor (P08581 whole entry): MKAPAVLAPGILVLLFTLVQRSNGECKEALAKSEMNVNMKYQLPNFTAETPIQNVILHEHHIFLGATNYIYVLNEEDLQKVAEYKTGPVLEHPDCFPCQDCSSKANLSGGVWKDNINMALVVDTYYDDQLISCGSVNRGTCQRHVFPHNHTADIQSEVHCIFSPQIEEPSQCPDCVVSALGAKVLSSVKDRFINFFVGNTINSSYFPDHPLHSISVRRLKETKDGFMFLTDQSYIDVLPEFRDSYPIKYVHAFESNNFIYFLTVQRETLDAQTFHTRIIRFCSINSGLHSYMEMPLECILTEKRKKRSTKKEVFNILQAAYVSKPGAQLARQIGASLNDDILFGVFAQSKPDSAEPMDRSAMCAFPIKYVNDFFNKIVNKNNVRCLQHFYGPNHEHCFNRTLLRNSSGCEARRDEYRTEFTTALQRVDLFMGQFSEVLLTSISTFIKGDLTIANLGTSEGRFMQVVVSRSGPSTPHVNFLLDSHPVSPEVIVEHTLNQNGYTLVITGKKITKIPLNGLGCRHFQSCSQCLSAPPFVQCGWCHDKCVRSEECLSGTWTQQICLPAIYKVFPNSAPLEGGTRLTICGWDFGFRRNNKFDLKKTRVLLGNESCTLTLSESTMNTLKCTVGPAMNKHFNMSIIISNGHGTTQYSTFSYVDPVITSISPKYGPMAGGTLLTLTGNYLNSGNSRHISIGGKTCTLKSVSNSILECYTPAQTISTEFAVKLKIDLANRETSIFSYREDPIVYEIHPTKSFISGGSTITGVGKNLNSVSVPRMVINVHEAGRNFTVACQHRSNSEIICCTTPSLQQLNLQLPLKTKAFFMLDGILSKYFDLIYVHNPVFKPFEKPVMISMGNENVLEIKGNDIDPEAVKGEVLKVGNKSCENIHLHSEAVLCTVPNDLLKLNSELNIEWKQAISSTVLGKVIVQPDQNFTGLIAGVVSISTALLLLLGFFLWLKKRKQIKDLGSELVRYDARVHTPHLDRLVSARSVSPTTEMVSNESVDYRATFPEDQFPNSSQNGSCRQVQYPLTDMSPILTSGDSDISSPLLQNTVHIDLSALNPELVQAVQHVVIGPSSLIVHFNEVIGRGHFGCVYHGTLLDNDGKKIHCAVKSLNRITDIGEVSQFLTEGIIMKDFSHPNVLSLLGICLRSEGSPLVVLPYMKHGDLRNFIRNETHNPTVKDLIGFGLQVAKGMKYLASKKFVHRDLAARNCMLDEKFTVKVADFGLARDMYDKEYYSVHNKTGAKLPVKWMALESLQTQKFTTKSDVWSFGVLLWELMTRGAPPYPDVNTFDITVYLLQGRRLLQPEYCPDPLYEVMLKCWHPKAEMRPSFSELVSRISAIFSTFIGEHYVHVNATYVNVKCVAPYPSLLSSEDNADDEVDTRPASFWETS
Sequence of Protein cereblon/Hepatocyte growth factor receptor (Q96SW2 whole entry): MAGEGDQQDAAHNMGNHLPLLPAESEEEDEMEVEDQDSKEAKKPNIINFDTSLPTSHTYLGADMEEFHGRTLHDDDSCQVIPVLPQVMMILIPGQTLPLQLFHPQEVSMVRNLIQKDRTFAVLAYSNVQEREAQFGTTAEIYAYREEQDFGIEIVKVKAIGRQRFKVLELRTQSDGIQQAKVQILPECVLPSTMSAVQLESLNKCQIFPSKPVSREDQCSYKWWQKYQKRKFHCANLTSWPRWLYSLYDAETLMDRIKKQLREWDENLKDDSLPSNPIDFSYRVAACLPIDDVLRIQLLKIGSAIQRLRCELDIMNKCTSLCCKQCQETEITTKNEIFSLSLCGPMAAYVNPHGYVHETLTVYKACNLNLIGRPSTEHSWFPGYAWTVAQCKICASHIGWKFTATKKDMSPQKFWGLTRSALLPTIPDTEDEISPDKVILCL

HCC1954 = assay: Antiproliferative activity against human HCC1954 cells incubated for 72 hrs by MTT assay; format: functional, cell-based; conditions: HCC1954, 72 h
[3] = biological target: T1, von Hippel-Lindau disease tumor suppressor/Hepatocyte growth factor receptor (Homo sapiens, UniProt P08581+P40337); assay: PROTAC activity at VHL/c-MET (unknown origin); format: protein
Target sequence in this assay (P08581 whole entry): as the sequence (P08581 whole entry) above
Target sequence in this assay (P40337 whole entry): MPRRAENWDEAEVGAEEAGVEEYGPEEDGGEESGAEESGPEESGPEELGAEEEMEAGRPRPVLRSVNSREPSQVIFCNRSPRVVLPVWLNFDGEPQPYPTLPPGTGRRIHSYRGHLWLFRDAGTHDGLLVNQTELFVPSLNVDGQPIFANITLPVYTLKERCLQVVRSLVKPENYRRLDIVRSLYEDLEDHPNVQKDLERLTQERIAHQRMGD

[4] = Toxicity in BALB/c nude mouse xenografted with human MKN-45 cells assessed as effect on spleen morphology at 10 mg/kg, po administered once daily for 21 days by H and E staining based analysis; format: organism-based; conditions: in vivo, 504 h, time 21 day
[5] = Half-life in Wistar rat at 20 mg/kg, po measured after 24 hrs by UPLC-MS/MS analysis; format: ADME, organism-based; conditions: in vivo
[6] = Toxicity in BALB/c nude mouse xenografted with human MKN-45 cells assessed as effect on kidney morphology at 10 mg/kg, po administered once daily for 21 days by H and E staining based analysis; format: organism-based; conditions: in vivo, 504 h, time 21 day
[7] = Toxicity in BALB/c nude mouse xenografted with human MKN-45 cells assessed as effect on liver morphology at 10 mg/kg, po administered once daily for 21 days by H and E staining based analysis; format: organism-based; conditions: in vivo, 504 h, time 21 day
[8] = Tmax in Wistar rat at 20 mg/kg, po measured after 24 hrs by UPLC-MS/MS analysis; format: ADME, organism-based; conditions: in vivo
[9] = AUC (0 to infinity) in po dosed rat; format: ADME, organism-based; conditions: in vivo
MKN-45 [10] = assay: Induction of c-MET degradation in human MKN-45 cells assessed as residual activity at 100 nM incubated for 24 hrs by Western blot analysis (reference value: 100 %); format: cell-based
[11] = Toxicity in BALB/c nude mouse xenografted with human MKN-45 cells assessed as body weight loss at 10 mg/kg, po administered once daily for 21 days; format: organism-based; conditions: in vivo, 504 h, time 21 day
[12] = Toxicity in BALB/c nude mouse xenografted with human MKN-45 cells assessed as effect on heart morphology at 10 mg/kg, po administered once daily for 21 days by H and E staining based analysis; format: organism-based; conditions: in vivo, 504 h, time 21 day
[13] = Cmax in po dosed rat; format: ADME, organism-based; conditions: in vivo
[14] = Toxicity in BALB/c nude mouse xenografted with human MKN-45 cells assessed as effect on lung morphology at 10 mg/kg, po administered once daily for 21 days by H and E staining based analysis; format: organism-based; conditions: in vivo, 504 h, time 21 day
MKN-45 [15] = assay: Downregulation of HMGCS1 protein level in human MKN-45 cells by MS-based quantitative proteomics analysis; format: functional, cell-based
MKN-45 [16] = assay: Downregulation of prothymosin-alpha protein abundance in human MKN-45 cells by MS-based quantitative proteomics analysis; format: functional, cell-based
MKN-45 [17] = assay: Upregulation of PDCD4 protein level in human MKN-45 cells by MS-based quantitative proteomics analysis; format: functional, cell-based
[18] = biological target: T1, von Hippel-Lindau disease tumor suppressor/Hepatocyte growth factor receptor; assay: PROTAC activity at VHL/c-MET in human MKN-45 cells assessed as induction of c-MET degradation by measuring residual activity at 100 nM incubated for 24 hrs by Western blot analysis (reference value: 100 %); format: cell-based
Target sequence in this assay (P40337 whole entry partner): as the sequence (P40337 whole entry) above
Target sequence in this assay (P08581 25-1390 limits assumed): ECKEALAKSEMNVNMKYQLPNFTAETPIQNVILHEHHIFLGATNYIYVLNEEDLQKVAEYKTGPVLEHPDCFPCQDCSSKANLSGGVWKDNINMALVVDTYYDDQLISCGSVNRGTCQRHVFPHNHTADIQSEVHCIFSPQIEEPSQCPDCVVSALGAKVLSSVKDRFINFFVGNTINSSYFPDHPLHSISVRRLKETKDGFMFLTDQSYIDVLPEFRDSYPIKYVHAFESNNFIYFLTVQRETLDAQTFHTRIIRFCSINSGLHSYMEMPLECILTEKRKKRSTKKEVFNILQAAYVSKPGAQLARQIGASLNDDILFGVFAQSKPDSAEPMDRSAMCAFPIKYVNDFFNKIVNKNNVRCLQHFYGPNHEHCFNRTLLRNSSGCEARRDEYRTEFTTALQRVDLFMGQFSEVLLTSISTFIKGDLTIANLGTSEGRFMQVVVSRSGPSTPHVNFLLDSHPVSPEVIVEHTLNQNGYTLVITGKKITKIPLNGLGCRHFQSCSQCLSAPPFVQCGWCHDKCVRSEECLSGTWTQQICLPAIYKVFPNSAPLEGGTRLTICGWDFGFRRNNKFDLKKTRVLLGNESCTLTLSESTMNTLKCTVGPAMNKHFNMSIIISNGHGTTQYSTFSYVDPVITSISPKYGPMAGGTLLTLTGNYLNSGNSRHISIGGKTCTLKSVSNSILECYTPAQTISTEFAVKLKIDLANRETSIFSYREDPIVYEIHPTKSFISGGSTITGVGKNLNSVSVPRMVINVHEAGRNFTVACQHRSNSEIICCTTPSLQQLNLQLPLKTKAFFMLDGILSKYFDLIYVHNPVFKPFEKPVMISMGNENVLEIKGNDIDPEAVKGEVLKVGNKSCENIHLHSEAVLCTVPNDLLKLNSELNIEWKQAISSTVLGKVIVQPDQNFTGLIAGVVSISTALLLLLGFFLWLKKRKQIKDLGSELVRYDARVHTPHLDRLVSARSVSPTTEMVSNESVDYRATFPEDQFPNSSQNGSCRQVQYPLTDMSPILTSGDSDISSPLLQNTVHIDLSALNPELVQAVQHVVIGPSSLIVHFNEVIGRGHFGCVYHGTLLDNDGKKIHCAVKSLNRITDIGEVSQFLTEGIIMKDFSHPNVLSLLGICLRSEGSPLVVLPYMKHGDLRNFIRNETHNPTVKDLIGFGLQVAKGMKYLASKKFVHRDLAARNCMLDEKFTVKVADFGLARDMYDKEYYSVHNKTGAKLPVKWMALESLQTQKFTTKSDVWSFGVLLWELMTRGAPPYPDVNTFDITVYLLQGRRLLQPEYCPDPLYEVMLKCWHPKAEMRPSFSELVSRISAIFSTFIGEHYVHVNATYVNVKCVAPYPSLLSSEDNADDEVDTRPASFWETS

[19] = biological target: T1, von Hippel-Lindau disease tumor suppressor/Hepatocyte growth factor receptor; assay: PROTAC activity at VHL/c-MET in human MKN-45 cells assessed as induction of c-MET degradation at 6.25 to 100 nM incubated for 24 hrs by Western blot analysis; format: cell-based; conditions: dose 6.25-100 nM
Target sequence in this assay (P40337 whole entry partner): as the sequence (P40337 whole entry) above
Target sequence in this assay (P08581 25-1390 limits assumed): as the sequence (P08581 25-1390 limits assumed) above

MKN-45 [20] = assay: Downregulation of KPNA2 protein level in human MKN-45 cells by MS-based quantitative proteomics analysis; format: functional, cell-based
MKN-45 [21] = assay: Downregulation of SLC7A1 protein level in human MKN-45 cells by MS-based quantitative proteomics analysis; format: functional, cell-based
[22] = biological target: von Hippel-Lindau disease tumor suppressor/Importin subunit alpha-1 (Homo sapiens) (UniProt P52292+P40337); assay: PROTAC activity at VHL/KPNA2 in human MKN-45 cells assessed as induction of c-MET degradation at 6.25 to 100 nM incubated for 24 hrs by Western blot analysis; format: cell-based; conditions: dose 6.25-100 nM

IC50 (MKN-45 [1]): 347 nM
DC50 [2]: > 100 nM
Structure (SMILES): C[C@@H](Oc1cc(-c2cnn(C3CCN(C(=O)CCCCCCCOc4cccc5c4C(=O)N(C4CCC(=O)NC4=O)C5=O)CC3)c2)cnc1N)c1c(Cl)ccc(F)c1Cl (some centres not stated)

IC50 (MKN-45 [1]): 102 nM
Activity [18]: 50%
Structure (SMILES): Cc1ncsc1-c1ccc([C@H](C)NC(=O)[C@@H]2C[C@@H](O)CN2C(=O)[C@@H](NC(=O)CCCCCCCCC(=O)N2CCC(COc3cnc(-c4cccc(Cn5nc(-c6cccc(C#N)c6)ccc5=O)c4)nc3)CC2)C(C)(C)C)cc1
Activity (MKN-45 [15]): Active
Activity (MKN-45 [16]): Active
Activity (MKN-45 [17]): Active

IC50 (MKN-45 [1]): 70.7 nM
Activity [19]: Active
Activity [18]: 64%
Activity [22]: Active
Structure (SMILES): Cc1ncsc1-c1ccc([C@H](C)NC(=O)[C@@H]2C[C@@H](O)CN2C(=O)[C@@H](NC(=O)CCCCCCCCC(=O)N2CCC(n3cc(-c4cnc(N)c(O[C@H](C)c5c(Cl)ccc(F)c5Cl)c4)cn3)CC2)C(C)(C)C)cc1
Activity (MKN-45 [17]): Active
Activity (MKN-45 [20]): Active
Activity (MKN-45 [21]): Active

Continued, molecule first:

Structure (SMILES): COc1cc2c(Oc3ccc(NC(=O)C4(C(=O)Nc5ccc(F)cc5)CC4)cc3)ccnc2cc1OCCCOCCCOCCC(=O)N[C@H](C(=O)N1C[C@H](O)C[C@H]1C(=O)NCc1ccc(-c2scnc2C)cc1)C(C)(C)C
IC50 (HCC1954): 6700 nM
DC50 [3]: > 1110 nM

Structure (SMILES): CNC(=O)c1ccc(-c2cnc3ncc(Cc4ccc5ncccc5c4)n3n2)cc1F [CAPMATINIB]
Activity [4]: Non-toxic
half-life [5]: 4.09 h
Activity [6]: Non-toxic
Activity [7]: Non-toxic
Tmax [8]: 0.5 h
AUC(0-inf) [9]: 10400 ng·h/mL
Activity (MKN-45 [10]): 112%
Activity [11]: Non-toxic
Activity [12]: Non-toxic
Cmax [13]: 3820 ng/mL
Activity [14]: Non-toxic
